Reference: PubChem BioAssay (NCI)
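The compound was tested at five concentrations on cells cultured in 96-well plates, with a 48-hour exposure period. GI50 is the concentration that inhibits growth by half. At the TGI there is no net growth.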

Columns and labels:
Test in all cases: NCI anticancer screen, dose series, 48 h
DMS 273 small cell lung = test system: DMS 273 small cell lung
EKVX NSCLC = test system: EKVX NSCLC
M19-MEL melanoma = test system: M19-MEL melanoma
HOP-18 NSCLC = test system: HOP-18 NSCLC
DMS 114 small cell lung = test system: DMS 114 small cell lung
KM20L2 colon = test system: KM20L2 colon
DLD-1 colon = test system: DLD-1 colon
TK-10 renal = test system: TK-10 renal
LXFL 529 NSCLC = test system: LXFL 529 NSCLC
SK-MEL-5 melanoma = test system: SK-MEL-5 melanoma
SK-OV-3 ovarian = test system: SK-OV-3 ovarian
SNB-78 CNS = test system: SNB-78 CNS
RXF-631 renal = test system: RXF-631 renal
XF 498 CNS = test system: XF 498 CNS

SMILES | TGI (DMS 273 small cell lung) [µM] | TGI (EKVX NSCLC) [µM] | TGI (M19-MEL melanoma) [µM] | TGI (HOP-18 NSCLC) [µM] | TGI (DMS 114 small cell lung) [µM] | TGI (KM20L2 colon) [µM] | TGI (DLD-1 colon) [µM] | TGI (TK-10 renal) [µM] | TGI (LXFL 529 NSCLC) [µM] | TGI (SK-MEL-5 melanoma) [µM] | TGI (SK-OV-3 ovarian) [µM] | TGI (SNB-78 CNS) [µM] | TGI (RXF-631 renal) [µM] | TGI (XF 498 CNS) [µM] | GI50 (EKVX NSCLC) [nM] | GI50 (TK-10 renal) [nM] | GI50 (SK-OV-3 ovarian) [nM]
COC(=O)C12Oc3ccc(-c4ccc5c(c4O)C(=O)C4=CCC(C)C(O)C4(C(=O)OC)O5)c(O)c3C(=O)C1=CCC(C)C2O (centres undefined) | 3.25 | 4.97 | 3.63 | 6.56 | 3.81 | 2.93 | 2.14 | 5.24 | 2.65 | 3.13 | 6.71 | 17.4 | 4.81 | – | – | – | –
CCCCOC(=O)CNC(=O)OCCCCC#CC#CCCCCOC(=O)NCC(=O)OCCCC | > 100 | > 100 | > 100 | > 100 | > 100 | > 100 | > 100 | > 100 | > 100 | > 100 | > 100 | > 100 | – | > 100 | – | – | –
O=C(c1ccc(Cl)cc1)c1ccc(OCC(=O)N2CCN(c3ccccc3)CC2)cc1 | – | > 100 | > 100 | > 100 | > 100 | > 100 | > 100 | > 100 | > 100 | > 100 | > 100 | > 100 | – | > 100 | – | – | –
CC(=O)C1CC(C)=CCC12C(=O)Nc1ccccc12 (centres undefined) | > 100 | > 100 | – | > 100 | > 100 | > 100 | > 100 | > 100 | > 100 | > 100 | > 100 | – | > 100 | > 100 | – | – | –
COc1cccc2cc(C)c(C(=O)c3ccccc3)nc12 | > 100 | > 100 | > 100 | > 100 | > 100 | > 100 | > 100 | > 100 | > 100 | > 100 | – | > 100 | > 100 | > 100 | – | – | –
COc1cc(OC)c2c(O)cc(CC(C)O)cc2c1 (centres undefined) | > 100 | > 100 | > 100 | > 100 | > 100 | > 100 | > 100 | > 100 | > 100 | > 100 | > 100 | > 100 | > 100 | > 100 | – | – | –
CCCCCc1cc(OC(=O)c2c(O)cc(OC)cc2CCCCC)cc(O)c1C(=O)O | 32.4 | 39.9 | 33.8 | – | 33.9 | 33.3 | 26.7 | 36.6 | 30.5 | 28.5 | 31.5 | 57.6 | – | 32.5 | – | – | –
CC1OC(OCC2OC(Oc3c(-c4ccc(O)cc4)oc4cc(O)cc(O)c4c3=O)C(OC3OCC(O)(CO)C3O)C(O)C2O)C(O)C(O)C1O (centres undefined) | > 100 | > 100 | 61.6 | > 100 | > 100 | > 100 | > 100 | > 100 | > 100 | > 100 | > 100 | > 100 | > 100 | – | – | – | –
CC(=O)Oc1ccc(/C=C/C(=O)O[C@@H](C)[C@H](C)OC(=O)/C=C/c2ccc(OC(C)=O)c(OC(C)=O)c2)cc1OC(C)=O | – | 79.7 | – | – | – | – | – | > 100 | – | 29.2 | 77.2 | – | – | – | – | – | –
COC(=O)Cc1ccc2c(c1)Sc1ccc(CC(=O)OC)cc1N2C | – | > 100 | – | – | – | – | – | > 100 | – | 26.3 | > 100 | – | – | – | – | – | –
CCC1C(=O)C[C@H]2[C@@H]3C(O)CC4=CC(=O)CC[C@]4(C)[C@H]3CC[C@]12C (some centres undefined) | – | > 50 | – | – | – | – | – | > 50 | – | > 50 | > 50 | – | – | – | – | – | –
Oc1ccc(/C=C\c2nnc(/C=C\c3ccc(O)c(O)c3)s2)cc1O | – | > 54.6 | – | – | – | – | – | 21.4 | – | 13.9 | 26.5 | – | – | – | – | – | –
CC(C)C[C@H](NC(=O)[C@H](Cc1cccc2ccccc12)NC(=O)N1CCOCC1)B(O)O | – | 0.159 | – | – | – | – | – | 0.0226 | – | 0.00237 | > 100 | – | – | – | 9.28 | 2.81 | 226
COc1ccc2c(c1)OC(c1cccnc1)C(c1ccccc1)C2=O (centres undefined) | – | > 100 | – | – | – | – | – | > 100 | – | > 100 | > 100 | – | – | – | – | – | –
O=C(Nc1ccccc1)O/N=C(/CBr)c1ccccc1 | – | 35.1 | – | – | – | – | – | 33.8 | – | 28.1 | 95 | – | – | – | – | – | –
CC(C)/C(Cl)=N/OC(=O)Nc1ccc(F)c(Cl)c1 | – | 5.17 | – | – | – | – | – | 31.9 | – | 28.2 | 30 | – | – | – | – | – | –
COC(=O)/C=C/c1ccccc1N=[S@](C)(=O)c1ccc(C)cc1 | – | > 100 | – | – | – | – | – | 71.9 | – | 38.3 | > 100 | – | – | – | – | – | –
Cc1cnoc1NC1=CC(=O)C(=O)c2ccccc21 | – | > 100 | – | – | – | – | – | > 100 | – | 12 | > 100 | – | – | – | – | – | –
Cc1cnc2c(C)ccc([N+](=O)[O-])c2c1NCCCN(C)C | > 100 | > 100 | > 100 | – | > 100 | > 100 | – | > 100 | – | – | > 100 | > 100 | – | – | – | – | –
CCCCOC(=O)C(=O)C(CCC(=O)c1ccc(C)cc1)C(=O)C=C(C)C (centres undefined) | – | > 100 | – | – | – | – | – | > 100 | – | > 100 | > 100 | – | – | – | – | – | –
CC(=O)C(C(C)=O)=C1CCCC(O)O1 (centres undefined) | – | > 100 | – | – | – | – | – | > 100 | – | > 100 | > 100 | – | – | – | – | – | –
CC(C)CCCC(C)[C@H]1CCC2[C@@H]3CCC4Cc5nc6c(nc5C[C@]4(C)C3CC[C@@]21C)CC1CC[C@@H]2C(C[C@@H](O)[C@@]3(C)C2C[C@@H]2OC4(CCC(C)CO4)C(C)[C@@H]23)[C@@]1(C)C6 (some centres undefined) | – | > 100 | – | – | – | – | – | > 100 | – | > 100 | > 100 | – | – | – | – | – | –
CCc1cccc(C(C)C)c1NC(=O)C(=O)C(Cc1nc2ccccc2[nH]c1=O)C(=O)OC (centres undefined) | > 100 | > 100 | > 100 | > 100 | 30.5 | > 100 | > 100 | > 100 | > 100 | > 100 | > 100 | – | – | > 100 | – | – | –
Cc1ccc(C(=O)N(C2CCCCC2)C2CCCCC2)cc1N=NN(C)C | 31.4 | 32.3 | 34 | – | – | – | 28.6 | 24 | 27.8 | 28.1 | 33.5 | 31.4 | – | – | – | – | –
COC1=CC(=O)c2ccccc2C1(CCC=C(C)C)C1=NC(C)(C)CO1 (centres undefined) | > 100 | > 100 | > 100 | > 100 | – | > 100 | > 100 | > 100 | > 100 | > 100 | > 100 | – | – | – | – | – | –
Cc1ccc(S(=O)(=O)N/C(=C\C=C\c2ccccc2)C(=O)C(C)(C)C)cc1 | – | > 100 | – | – | – | – | – | > 100 | – | > 100 | > 100 | – | – | – | – | – | –
O=c1c2ccccc2[nH]c(=S)n1-c1ccc(Br)cc1 | – | > 100 | > 100 | > 100 | > 100 | > 100 | > 100 | > 100 | > 100 | – | – | > 100 | – | > 100 | – | – | –
CCNC(=O)Nc1cccc(C)n1 | – | > 100 | – | – | – | – | – | > 100 | – | > 100 | > 100 | – | – | – | – | – | –
